The record followed here is ChEMBL document CHEMBL1142614, “An antimicrobial C(14) acetylenic acid from a marine sponge Oceanapia species” (2000).

Calls of active or inactive are those of the source. The rule behind the calls is not given here.

Assay [1] has as its system Saccharomyces cerevisiae. Briefly: Antimicrobial activity against Saccharomyces cerevisiae GT160-45C at 100 ug after 24 hrs. The assay is classed as functional. The settings on record: read-out: IZ.
Assay [2] has as its system Saccharomyces cerevisiae. Briefly: Antimicrobial activity against Saccharomyces cerevisiae cdc5 mutant at 50 ug after 24 hrs. The assay is classed as functional. Particulars: read-out: IZ.
Assay [3] concerns Saccharomyces cerevisiae. Briefly: Antimicrobial activity against Saccharomyces cerevisiae act1-1 mutant at 50 ug after 24 hrs. The settings on record: read-out: IZ. The class given is functional.
The test system of assay [4] is Saccharomyces cerevisiae. Briefly: Antimicrobial activity against Saccharomyces cerevisiae YAT2296 mutant at 50 ug after 24 hrs. The class given is functional. Particulars: read-out: IZ.
Assay [5] deals with Saccharomyces cerevisiae. In words: Antimicrobial activity against Saccharomyces cerevisiae cdc5 mutant at 100 ug after 24 hrs. The assay is classed as functional. The settings on record: read-out: IZ.
Assay [6] relates to Saccharomyces cerevisiae. Briefly: Antimicrobial activity against Saccharomyces cerevisiae act1-1 mutant at 100 ug after 24 hrs. The assay is classed as functional. Particulars: read-out: IZ.
The subject of assay [7] is Saccharomyces cerevisiae. Briefly: Antimicrobial activity against Saccharomyces cerevisiae YAT2296 mutant at 100 ug after 24 hrs. The assay is classed as functional. The settings on record: read-out: IZ.
For assay [8], the system named is Penicillium chrysogenum. In words: Antimicrobial activity against Penicillium chrysogenum after 24 hrs. The assay is classed as functional, organism-based.
Assay [9] relates to Candida albicans. In words: Antimicrobial activity against Candida albicans at 100 ug after 24 hrs. The assay is classed as functional. The settings on record: read-out: IZ.
Assay [10] relates to Umbelopsis ramanniana. In words: Antimicrobial activity against Mortierella ramanniana after 24 hrs. The assay is classed as functional, organism-based.
Assay [11] relates to Escherichia coli. In words: Antimicrobial activity against Escherichia coli at 50 ug after 24 hrs. The class given is functional. Particulars: read-out: IZ.
Assay [12] concerns Escherichia coli. Briefly: Antimicrobial activity against Escherichia coli at 100 ug after 24 hrs. The class given is functional. Particulars: read-out: IZ.
The subject of assay [13] is Pseudomonas aeruginosa. Briefly: Antimicrobial activity against Pseudomonas aeruginosa at 50 ug after 24 hrs. The class given is functional. Particulars: read-out: IZ.
Assay [14] relates to Pseudomonas aeruginosa. Briefly: Antimicrobial activity against Pseudomonas aeruginosa at 100 ug after 24 hrs. The assay is classed as functional. The settings on record: read-out: IZ.
Assay [15] relates to Bacillus subtilis. In words: Antimicrobial activity against Bacillus subtilis at 100 ug after 24 hrs. The class given is functional. The settings on record: read-out: IZ.
In assay [16] the test system is Staphylococcus aureus. In words: Antimicrobial activity against Staphylococcus aureus at 50 ug after 24 hrs. Particulars: read-out: IZ. The class given is functional.
The subject of assay [17] is Staphylococcus aureus. Briefly: Antimicrobial activity against Staphylococcus aureus at 100 ug after 24 hrs. The assay is classed as functional. Particulars: read-out: IZ.

Consider `CC/C=C/C#C/C=C/C#CCCCC(=O)O`, for which the zone of inhibition at 100 µg/disc amounted to 6.5 mm in [1]; 7.5 mm in assay [5]; 10 mm in [6]; 7 mm in assay [7]; 8.5 mm in assay [9]; 12 mm in assay [12]. Besides, the zone of inhibition at 100 µg/disc in [14] is 13 mm; in [15] it was 11 mm; in assay [17] it was 13.5 mm. Further, the zone of inhibition at 50 µg/disc stood at 7 mm in assay [2]; 9 mm in assay [3]; 6.5 mm in assay [4]; 8.5 mm in assay [11]; 8.5 mm in assay [13]; 9.5 mm in assay [16]. Also, the result in [8] and in assay [10] was inactive.
